Test results taken from ChEMBL document CHEMBL3045554, “Synthesis and antimicrobial screening of N-(1-methyl-1H-pyrazole-4-carbonyl)-thiourea derivatives” (2012).
In brackets after ≈: the same amount, converted by molar mass.

Key:
Format in all cases: functional
Enterococcus faecalis = assay: Antimicrobial activity against Enterococcus faecalis 13773 by microdilution method
Staphylococcus aureus = assay: Antimicrobial activity against Staphylococcus aureus by microdilution method
Pseudomonas aeruginosa = assay: Antimicrobial activity against Pseudomonas aeruginosa 5541 by microdilution method
Acinetobacter baumannii = assay: Antimicrobial activity against Acinetobacter baumannii 15896 by microdilution method
Escherichia coli = assay: Antimicrobial activity against Escherichia coli 637/2007 by microdilution method
Klebsiella pneumoniae = assay: Antimicrobial activity against Klebsiella pneumoniae 126/2007 by microdilution method
Bacillus subtilis = assay: Antimicrobial activity against Bacillus subtilis 10.10.2006 by microdilution method

Compound	MIC (Enterococcus faecalis) [µg/mL]	MIC (Staphylococcus aureus) [µg/mL]	MIC (Pseudomonas aeruginosa) [µg/mL]	MIC (Acinetobacter baumannii) [µg/mL]	MIC (Escherichia coli) [µg/mL]	MIC (Klebsiella pneumoniae) [µg/mL]	MIC (Bacillus subtilis) [µg/mL]
Cn1cc(C(=O)NC(=S)Nc2ccccc2C(C)(C)C)cn1	> 1000	> 1000	> 1000	1000 (≈ 3.16 mM)	> 1000	> 1000	> 1000
CC(C)c1ccc(NC(=S)NC(=O)c2cnn(C)c2)cc1	> 1000	> 1000	> 1000	> 1000	> 1000	> 1000	> 1000
Cn1cc(C(=O)NC(=S)Nc2ccc(C(C)(C)C)cc2)cn1	> 1000	> 1000	> 1000	> 1000	> 1000	> 1000	> 1000
Cc1cccc(NC(=S)NC(=O)c2cnn(C)c2)c1	> 1000	> 1000	> 1000	> 1000	> 1000	1000 (≈ 3.64 mM)	1000 (≈ 3.64 mM)

The next lines start with the values.

MIC (Enterococcus faecalis) [µg/mL]	MIC (Staphylococcus aureus) [µg/mL]	MIC (Pseudomonas aeruginosa) [µg/mL]	MIC (Acinetobacter baumannii) [µg/mL]	MIC (Escherichia coli) [µg/mL]	MIC (Klebsiella pneumoniae) [µg/mL]	MIC (Bacillus subtilis) [µg/mL]	Compound
> 1000	> 1000	> 1000	> 1000	> 1000	> 1000	> 1000	Cc1ccccc1NC(=S)NC(=O)c1cnn(C)c1
> 1000	> 1000	> 1000	> 1000	> 1000	> 1000	> 1000	CCc1ccc(NC(=S)NC(=O)c2cnn(C)c2)cc1
